Experimental data from patent US20240000872A1, “NOVEL BACTERIOPHAGE THAT LYSES ACINETOBACTER GENUS BACTERIA HAVING RESISTANCE TO ANTIBIOTICS” (priority 2020, published 2024).

Test system: Acinetobacter baumannii strains
Test: Antibiotic susceptibility test (CLSI disk diffusion test method, read per CLSI 2016)
Type: cell-based
Method: (§1) Strain identification was performed using a kit such as AT 32 GN system (bioMérieux, Marcy l'Etoile, France). […] In Table 2 below, S, I, and R are the results obtained by evaluating susceptibility to the antibacterial agents, in which ‘S’ means susceptible, ‘I’ means intermediate, and ‘R’ means resistant.
as §1, with “as ATB” for “as AT”, “system (bioMédrieux,” for “system (bioMérieux,”, “Table 6” for “Table 2”
as §1, with “as ATB” for “as AT”, “Table 10” for “Table 2”, “susceptible, T” for “susceptible, ‘I’”

C[C@H]1COc2c(N3CCN(C)CC3)c(F)cc3c(=O)c(C(=O)O)cn1c23 [Levofloxacin, levofloxacin]
antibiotic susceptibility S/I/R (host strain YMC16/01/R353): R
susceptibility category (S/I/R) (host strain YMC16/01/R353): R
antibiotic susceptibility S/I/R (host strain YMC16/01/R380): R
susceptibility category (S/I/R) (host strain YMC16/01/R380): R
antibiotic susceptibility S/I/R (host strain YMC16/01/R397): R
susceptibility category (S/I/R) (host strain YMC16/01/R397): R
antibiotic susceptibility S/I/R (host strain YMC16/01/R405): R
susceptibility category (S/I/R) (host strain YMC16/01/R405): R
antibiotic susceptibility S/I/R (host strain YMC16/03/R4461): R
susceptibility category (S/I/R) (host strain YMC16/03/R4461): R
antibiotic susceptibility S/I/R (host strain YMC16/05/R2210): R
susceptibility category (S/I/R) (host strain YMC16/05/R2210): R
antibiotic susceptibility S/I/R (host strain YMC16/07/R2512): R
susceptibility category (S/I/R) (host strain YMC16/07/R2512): R
antibiotic susceptibility S/I/R (host strain YMC16/09/R2471): R
susceptibility category (S/I/R) (host strain YMC16/09/R2471): R
antibiotic susceptibility S/I/R (host strain YMC16/10/R2537): R
susceptibility category (S/I/R) (host strain YMC16/10/R2537): R
antibiotic susceptibility S/I/R (host strain YMC16/12/B11422): R
susceptibility category (S/I/R) (host strain YMC16/12/B11422): R
antibiotic susceptibility S/I/R (host strain YMC16/12/B11449): R
susceptibility category (S/I/R) (host strain YMC16/12/B11449): R
antibiotic susceptibility S/I/R (host strain YMC16/12/B13325): R
susceptibility category (S/I/R) (host strain YMC16/12/B13325): R
antibiotic susceptibility S/I/R (host strain YMC16/12/P503): R
susceptibility category (S/I/R) (host strain YMC16/12/P503): R
antibiotic susceptibility S/I/R (host strain YMC16/12/R4637): R
susceptibility category (S/I/R) (host strain YMC16/12/R4637): R
antibiotic susceptibility S/I/R (host strain YMC17/01/B8053): R
susceptibility category (S/I/R) (host strain YMC17/01/B8053): R
antibiotic susceptibility S/I/R (host strain YMC17/01/B10087): R
susceptibility category (S/I/R) (host strain YMC17/01/B10087): R
antibiotic susceptibility S/I/R (host strain YMC17/01/B12075): R
susceptibility category (S/I/R) (host strain YMC17/01/B12075): R
antibiotic susceptibility S/I/R (host strain YMC17/01/B13454): R
susceptibility category (S/I/R) (host strain YMC17/01/B13454): R
antibiotic susceptibility S/I/R (host strain YMC17/01/P518): R
susceptibility category (S/I/R) (host strain YMC17/01/P518): R
antibiotic susceptibility S/I/R (host strain YMC17/01/R2812): R
susceptibility category (S/I/R) (host strain YMC17/01/R2812): R
antibiotic susceptibility S/I/R (host strain YMC17/02/B14): R
susceptibility category (S/I/R) (host strain YMC17/02/B14): R
antibiotic susceptibility S/I/R (host strain YMC17/02/B87): R
susceptibility category (S/I/R) (host strain YMC17/02/B87): R
antibiotic susceptibility S/I/R (host strain YMC17/02/B721): R
susceptibility category (S/I/R) (host strain YMC17/02/B721): R
antibiotic susceptibility S/I/R (host strain YMC17/02/B4039): R
susceptibility category (S/I/R) (host strain YMC17/02/B4039): R
antibiotic susceptibility S/I/R (host strain YMC17/02/B4520): R
susceptibility category (S/I/R) (host strain YMC17/02/B4520): R
antibiotic susceptibility S/I/R (host strain YMC17/02/B4864): S
susceptibility category (S/I/R) (host strain YMC17/02/B4864): S
antibiotic susceptibility S/I/R (host strain YMC17/02/B8414): R
susceptibility category (S/I/R) (host strain YMC17/02/B8414): R
antibiotic susceptibility S/I/R (host strain YMC17/02/P523): R
susceptibility category (S/I/R) (host strain YMC17/02/P523): R
antibiotic susceptibility S/I/R (host strain YMC17/02/R541): R
susceptibility category (S/I/R) (host strain YMC17/02/R541): R
antibiotic susceptibility S/I/R (host strain YMC17/02/R2392): R
susceptibility category (S/I/R) (host strain YMC17/02/R2392): R
antibiotic susceptibility S/I/R (host strain YMC17/03/B4730): R
susceptibility category (S/I/R) (host strain YMC17/03/B4730): R
antibiotic susceptibility S/I/R (host strain YMC17/03/B5000): R
susceptibility category (S/I/R) (host strain YMC17/03/B5000): R
antibiotic susceptibility S/I/R (host strain YMC17/03/P971): R
susceptibility category (S/I/R) (host strain YMC17/03/P971): R
antibiotic susceptibility S/I/R (host strain YMC17/03/R348): R
susceptibility category (S/I/R) (host strain YMC17/03/R348): R
antibiotic susceptibility S/I/R (host strain YMC17/03/R585): R
susceptibility category (S/I/R) (host strain YMC17/03/R585): R
antibiotic susceptibility S/I/R (host strain YMC17/03/R1888): R
susceptibility category (S/I/R) (host strain YMC17/03/R1888): R
antibiotic susceptibility S/I/R (host strain YMC17/03/R3279): R
susceptibility category (S/I/R) (host strain YMC17/03/R3279): R
antibiotic susceptibility S/I/R (host strain YMC17/03/R4077): R
susceptibility category (S/I/R) (host strain YMC17/03/R4077): R
antibiotic susceptibility S/I/R (host strain YMC17/03/R4607): R
susceptibility category (S/I/R) (host strain YMC17/03/R4607): R
antibiotic susceptibility S/I/R (host strain YMC17/04/R488): R
susceptibility category (S/I/R) (host strain YMC17/04/R488): R
antibiotic susceptibility S/I/R (host strain YMC17/04/R640): R
susceptibility category (S/I/R) (host strain YMC17/04/R640): R
antibiotic susceptibility S/I/R (host strain YMC/17/05/R1095): R
susceptibility category (S/I/R) (host strain YMC/17/05/R1095): R
